Experiment [1] deals with Transient receptor potential cation channel subfamily V member 1 (Homo sapiens, UniProt Q8NER1). Put plainly: FLIPR Assay: The agonistic or antagonistic effect of the substances to be tested on the vanilloid receptor 1 (VR1) can also be determined using the following assay. In this assay, the influx of Ca2+ through the channel is quantified with the aid of a Ca2+-sensitive dye (type Fluo-4, Molecular Probes Europe BV, Leiden, the Netherlands) in a fluorescent imaging plate reader (FLIPR, Molecular Devices, Sunnyvale, USA).Method:Chinese hamster ovary cells (CHO K1 cells, European Collection of Cell Cultures (ECACC) United Kingdom) are stably transfected with the VR1 gene. For functional testing, these cells are plated out on poly-D-lysine-coated black 96-well plates having a clear base (BD Biosciences, Heidelberg, Germany) at a density of 25,000 cells/well. The cells are incubated overnight at 37 C. and 5% CO2 in a culture medium (Ham's F12 nutrient mixture, 10% by volume of FCS (foetal calf serum), 18 ug/ml of L-proline). The next day the cells are incubated with Fluo-4. Type of experiment: cell-based.
Transient receptor potential cation channel subfamily V member 1 (Homo sapiens, UniProt Q8NER1), sequence (Q8NER1 whole entry): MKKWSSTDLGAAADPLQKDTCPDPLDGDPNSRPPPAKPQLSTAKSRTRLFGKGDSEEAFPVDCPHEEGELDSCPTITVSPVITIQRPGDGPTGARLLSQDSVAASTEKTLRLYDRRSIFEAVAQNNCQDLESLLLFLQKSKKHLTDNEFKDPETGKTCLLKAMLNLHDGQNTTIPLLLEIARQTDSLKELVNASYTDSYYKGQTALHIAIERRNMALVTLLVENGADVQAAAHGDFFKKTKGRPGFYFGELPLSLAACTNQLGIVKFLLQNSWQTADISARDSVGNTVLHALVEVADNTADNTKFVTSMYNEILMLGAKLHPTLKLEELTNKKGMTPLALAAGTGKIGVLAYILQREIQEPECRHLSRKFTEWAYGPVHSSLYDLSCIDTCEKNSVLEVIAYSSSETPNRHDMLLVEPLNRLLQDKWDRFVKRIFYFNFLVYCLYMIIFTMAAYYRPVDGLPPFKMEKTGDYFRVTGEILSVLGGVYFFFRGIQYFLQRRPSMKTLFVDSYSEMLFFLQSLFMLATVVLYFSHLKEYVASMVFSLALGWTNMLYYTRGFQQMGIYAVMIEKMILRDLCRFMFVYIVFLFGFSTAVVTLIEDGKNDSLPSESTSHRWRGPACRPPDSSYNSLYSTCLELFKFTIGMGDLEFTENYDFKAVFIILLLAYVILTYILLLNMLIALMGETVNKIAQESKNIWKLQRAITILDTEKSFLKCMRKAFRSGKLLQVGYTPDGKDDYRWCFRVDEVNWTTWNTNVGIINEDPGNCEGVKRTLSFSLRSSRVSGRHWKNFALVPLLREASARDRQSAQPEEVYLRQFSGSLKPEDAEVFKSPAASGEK

The target of experiment [2] is Transient receptor potential cation channel subfamily V member 1 (Rattus norvegicus, UniProt O35433). The experiment is described as follows: FLIPR Assay: The agonistic or antagonistic effect of the substances to be tested on the rat-species vanilloid receptor 1 (VR1/TRPV1) can be determined using the following assay. In this assay, the influx of Ca2+ through the receptor channel is quantified with the aid of a Ca2+-sensitive dye (type Fluo-4, Molecular Probes Europe BV, Leiden, the Netherlands) in a fluorescent imaging plate reader (FLIPR, Molecular Devices, Sunnyvale, USA).Method:Complete medium: 50 ml HAMS F12 nutrient mixture (Gibco Invitrogen GmbH, Karlsruhe, Germany) with10% by volume of FCS (foetal calf serum, Gibco Invitrogen GmbH, Karlsruhe, Germany, heat-inactivated);2 mM L-glutamine (Sigma, Munich, Germany);1% by weight of AA solution (antibiotic/antimyotic solution, PAA, Pasching, Austria) and 25 ng/ml NGF medium (2.5 S, Gibco Invitrogen GmbH, Karlsruhe, Germany).
Transient receptor potential cation channel subfamily V member 1 (Rattus norvegicus, UniProt O35433), sequence (O35433 whole entry): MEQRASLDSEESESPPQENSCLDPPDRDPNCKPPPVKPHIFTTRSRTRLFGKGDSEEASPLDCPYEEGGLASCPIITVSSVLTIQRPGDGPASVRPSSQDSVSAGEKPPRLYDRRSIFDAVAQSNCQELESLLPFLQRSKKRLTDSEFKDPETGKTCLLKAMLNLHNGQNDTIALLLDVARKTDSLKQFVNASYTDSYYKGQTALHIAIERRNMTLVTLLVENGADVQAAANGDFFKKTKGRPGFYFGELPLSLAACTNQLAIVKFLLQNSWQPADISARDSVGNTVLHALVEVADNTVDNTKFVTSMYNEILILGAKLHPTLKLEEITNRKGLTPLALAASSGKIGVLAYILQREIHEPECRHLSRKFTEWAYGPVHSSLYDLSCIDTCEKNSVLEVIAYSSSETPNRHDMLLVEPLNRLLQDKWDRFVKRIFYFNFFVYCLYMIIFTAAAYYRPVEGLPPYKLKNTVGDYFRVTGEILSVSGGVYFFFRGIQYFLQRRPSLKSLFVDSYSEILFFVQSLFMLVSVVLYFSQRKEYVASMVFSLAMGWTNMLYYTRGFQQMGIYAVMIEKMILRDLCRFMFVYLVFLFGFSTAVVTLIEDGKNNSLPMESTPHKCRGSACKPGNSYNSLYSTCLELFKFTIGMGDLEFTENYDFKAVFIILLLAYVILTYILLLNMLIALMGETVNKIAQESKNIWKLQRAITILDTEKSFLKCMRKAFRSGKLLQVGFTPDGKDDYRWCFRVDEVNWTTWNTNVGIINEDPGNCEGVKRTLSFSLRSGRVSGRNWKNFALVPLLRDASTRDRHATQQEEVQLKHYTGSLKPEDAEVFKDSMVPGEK

For the compound `Cc1ccc(-n2nc(C(C)(C)C)cc2CNC(=O)C(C)c2ccc(NS(C)(=O)=O)c(F)c2)cc1` (configuration not stated), the Ki in experiment [1] was 8 nM; in experiment [2], 5.9 nM.

(Values after ChEMBL document CHEMBL3638657, “Substituted phenylureas and phenylamides as vanilloid receptor ligands” (2015).)
